From article PMC5127184 (Scientific Reports, 2016)
“Also recorded” adds a separate entry of the source. Values belong to the molecule of their own block, whether it stands above or below them. Ends that are not written are not given here.

Experiments:
[1] = echidna serum; conditions: 37 °C, up to seven hours
[2] = system: DPP-4; experiment: DPP-4 (3 U/L) in sodium phosphate buffer (0.1 M, pH 7.4); conditions: human, 37 °C, up to 120 min
[3] = albumin-depleted human serum (purified by DEAE Affi-Gel Blue Cartridges); conditions: 37 °C, up to 11 h
[4] = target: purified human DPP-4 (Homo sapiens, UniProt P27487); experiment: Cleavage by purified human DPP-4 (RP-HPLC); assay type: in vitro ADME; conditions: 30 μM peptide, DPP-4 3 U/L, 0.1 M sodium phosphate pH 7.4, 37 °C, 0-120 min, n = 3
Chain of purified human DPP-4 (P27487 whole entry): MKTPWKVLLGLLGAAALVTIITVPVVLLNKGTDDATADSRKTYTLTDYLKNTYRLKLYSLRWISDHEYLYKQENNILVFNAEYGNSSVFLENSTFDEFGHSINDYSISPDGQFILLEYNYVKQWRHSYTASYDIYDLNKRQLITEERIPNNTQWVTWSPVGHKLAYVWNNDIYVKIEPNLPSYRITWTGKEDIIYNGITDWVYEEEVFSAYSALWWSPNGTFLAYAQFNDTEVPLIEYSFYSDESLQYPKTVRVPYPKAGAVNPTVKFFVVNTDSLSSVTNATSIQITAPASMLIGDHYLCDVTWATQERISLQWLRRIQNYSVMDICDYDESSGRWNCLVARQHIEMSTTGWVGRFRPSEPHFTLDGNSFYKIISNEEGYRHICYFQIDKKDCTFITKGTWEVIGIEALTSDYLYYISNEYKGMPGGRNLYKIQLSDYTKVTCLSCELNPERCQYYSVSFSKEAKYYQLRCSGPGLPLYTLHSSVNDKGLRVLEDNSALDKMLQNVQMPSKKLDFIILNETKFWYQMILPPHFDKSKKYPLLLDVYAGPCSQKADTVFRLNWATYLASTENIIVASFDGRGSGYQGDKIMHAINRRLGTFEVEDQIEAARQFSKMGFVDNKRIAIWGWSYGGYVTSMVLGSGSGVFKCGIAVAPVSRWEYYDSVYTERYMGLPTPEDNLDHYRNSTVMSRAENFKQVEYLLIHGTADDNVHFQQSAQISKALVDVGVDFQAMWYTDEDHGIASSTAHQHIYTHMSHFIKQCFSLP
Description: (§1) Samples were analysed by RP-HPLC with solvent A (0.1% TFA in water) and B (80% acetonitrile in 0.1% aqueous TFA) at a flow rate of 0.5 ml/min.

[5] = in vitro; assay type: in vitro ADME, human; conditions: 7 μM peptide, 37 °C; for Stability in albumin-depleted human serum (in words): 0-11 h, RP-HPLC, n = 3; for remaining at 11 h, 7 μM: human, 11 h incubation, serum purified by DEAE Affi-Gel Blue (albumin-depleted), RP-HPLC area under the curve of intact peptide, means ± S.E.M. of three experiments in triplicate
Description: (§2) Aliquots were analysed by RP-HPLC. Human serum was from the author Briony Forbes and provided with informed consent. We confirm that all methods for these studies were carried out in accordance with relevant guidelines and regulations, and all experimental protocols satisfy the Adelaide University Human Research Ethics Committee criteria as being “negligible risk research”.

[6] = in vitro; assay type: in vitro ADME, platypus; conditions: 37 °C; for Effect of DPP-4 inhibitor P32/98 on degradation in platypus serum (in words): 100 μM P32/98, 7 μM peptide, RP-HPLC; for remaining at 11 h, 7 μM: platypus, 11 h incubation, 7 μM peptide, serum purified by DEAE Affi-Gel Blue, RP-HPLC area under the curve of intact peptide, means ± S.E.M. of three experiments in triplicate
Description: as §2

[7] = in vitro; assay type: in vitro ADME, echidna; conditions: 7 μM peptide, 37 °C; for Uncleaved peptide remaining after 11 hours in echidna serum: RP-HPLC, sentence covers platypus and echidna sera; for remaining at 11 h, 7 μM: echidna, 11 h incubation, serum purified by DEAE Affi-Gel Blue, RP-HPLC area under the curve of intact peptide, means ± S.E.M. of three experiments in triplicate
Description: as §2

[8] = target: T1, hGLP-1R (Homo sapiens, UniProt P43220); experiment: Radioligand competition binding, FlpInCHO-hGLP-1R cells
T1 construct: expressed in transfected cells
T1 sequence (P43220 24-463): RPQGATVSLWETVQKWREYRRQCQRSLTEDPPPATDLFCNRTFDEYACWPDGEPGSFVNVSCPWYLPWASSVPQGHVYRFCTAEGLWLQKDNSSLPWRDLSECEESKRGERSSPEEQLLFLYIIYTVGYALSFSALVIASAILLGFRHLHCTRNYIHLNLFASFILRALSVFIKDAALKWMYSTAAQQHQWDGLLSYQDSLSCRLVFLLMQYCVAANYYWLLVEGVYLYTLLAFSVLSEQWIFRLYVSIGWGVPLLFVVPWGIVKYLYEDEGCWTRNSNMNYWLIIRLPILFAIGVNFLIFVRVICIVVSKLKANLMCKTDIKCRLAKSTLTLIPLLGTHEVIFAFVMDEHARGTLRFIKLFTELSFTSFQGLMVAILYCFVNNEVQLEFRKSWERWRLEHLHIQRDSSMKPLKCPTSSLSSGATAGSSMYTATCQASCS
Description: (§3) Human and pGLP-1R cDNAs were isogenically integrated into FlpIn-Chinese hamster ovary (FlpInCHO) cells (Invitrogen) and selection of receptor-expressing cells accomplished by treatment with 600 μg/ml hygromycin B as described previously. Transfected and parental FlpInCHO cells were maintained in DMEM supplemented with 10% heat-inactivated FBS and incubated in a humidified environment at 37 °C in 5% CO2. INS-1(832/13) cells were cultured in RPMI-1640 medium supplemented with 10 mM HEPES, 10% heat-inactivated FBS, 2 mM L-glutamine, 1 mM sodium pyruvate, 0.05 mM β-mercaptoethanol, 100 iU/ml penicillin, and 100 µg/ml streptomycin at 37 °C in a humidified 5% CO2 atmosphere.
FlpInCHO-hGLP-1R and FlpInCHO-pGLP-1R cells were seeded at a density of 3 × 10^4 cells/well and INS-1(832/13) cells at 10^5 cells/well into 96-well culture plates and incubated overnight at 37 °C in 5% CO2. […] Cells were then lysed in 0.1 M NaOH, and radioactivity determined by γ-counting as described previously.
All data were analysed in Prism 6.0c (GraphPad Software Inc., San Diego, CA). Concentration response signalling data were analysed using a three-parameter logistic equation as described previously. Signalling bias was analysed as described. […] The transduction ratio (tau/Ka) was extracted from standard concentration-response data that was analysed with the operational model of agonism (Kenakin & Christopoulos 2012). […]

[9] = target: T1, hGLP-1R; experiment: cAMP accumulation, FlpInCHO-hGLP-1R cells; assay type: cell-based
Description: as §3, with “atmosphere. […]” for “atmosphere.”
All data were analysed in Prism 6.0c (GraphPad Software Inc., San Diego, CA). Concentration response signalling data were analysed using a three-parameter logistic equation as described previously. Signalling bias was analysed as described. Briefly, quantification of signal bias was performed using pharmacologically derived parameters of agonist affinity (Ka) and efficacy (tau) for each ligand in each of the three signalling pathways (cAMP accumulation, ERK1/2 phosphorylation, Intracellular Ca^2+ mobilisation). The transduction ratio (tau/Ka) was extracted from standard concentration-response data that was analysed with the operational model of agonism (Kenakin & Christopoulos 2012). […]

[10] = target: T1, hGLP-1R; experiment: Intracellular Ca2+ mobilization, FlpInCHO-hGLP-1R cells; assay type: cell-based
Description: (§4) Human and pGLP-1R cDNAs were isogenically integrated into FlpIn-Chinese hamster ovary (FlpInCHO) cells (Invitrogen) and selection of receptor-expressing cells accomplished by treatment with 600 μg/ml hygromycin B as described previously. Transfected and parental FlpInCHO cells were maintained in DMEM supplemented with 10% heat-inactivated FBS and incubated in a humidified environment at 37 °C in 5% CO2.
(§5) FlpInCHO-hGLP-1R and FlpInCHO-pGLP-1R cells were seeded at a density of 3 × 10^4 cells/well into 96-well culture plates and incubated overnight at 37 °C in 5% CO2 and receptor-mediated intracellular Ca^2+ mobilization determined as described previously.
(§6) All data were analysed in Prism 6.0c (GraphPad Software Inc., San Diego, CA). Concentration response signalling data were analysed using a three-parameter logistic equation as described previously. Signalling bias was analysed as described. Briefly, quantification of signal bias was performed using pharmacologically derived parameters of agonist affinity (Ka) and efficacy (tau) for each ligand in each of the three signalling pathways (cAMP accumulation, ERK1/2 phosphorylation, Intracellular Ca^2+ mobilisation). […] Data are presented on a log scale.

[11] = target: T1, hGLP-1R; experiment: ERK1/2 phosphorylation, FlpInCHO-hGLP-1R cells; assay type: cell-based
Description: as §4
FlpInCHO-hGLP-1R and FlpInCHO-pGLP-1R cells were seeded at a density of 3 × 10^4 cells/well into 96-well culture plates and incubated overnight at 37 °C in 5% CO2. Receptor-mediated ERK1/2 phosphorylation was determined as previously described.
as §6

[12] = system: DPP-4; experiment: Cleavage by purified human DPP-4 (RP-HPLC); assay type: in vitro ADME; conditions: human, isolated enzyme dpp iv, 30 μM peptide, DPP-4 3 U/L, 0.1 M sodium phosphate pH 7.4, 37 °C, UV 215.8 nm, n = 3, read-out: Time to 50% reduction of intact peptide with purified human DPP-4
Description: as §1

[13] = system: pGLP-1R; experiment: Radioligand competition binding, FlpInCHO-pGLP-1R cells; design: species or system platypus; conditions: competition with 125I-hGLP-1 (7–36), 0.15 nM, FlpInCHO cells stably expressing pGLP-1R, overnight 4 °C; means ± S.E.M. of two or three experiments in triplicate
Description: as §4
Cells were then incubated overnight at 4 °C, followed by three washes with ice-cold 1 × PBS to remove unbound radioligand. Cells were then lysed in 0.1 M NaOH, and radioactivity determined by γ-counting as described previously.
as §6

[14] = system: pGLP-1R; experiment: Intracellular Ca2+ mobilization, FlpInCHO-pGLP-1R cells; assay type: cell-based, platypus; conditions: normalized to 100 μM ATP, means ± S.E.M. of at least three experiments in triplicate
Description: as §4, §5, §6

[15] = system: INS-1 (832/13) cells; experiment: cAMP accumulation, INS-1 (832/13) cells; assay type: cell-based; conditions: normalized to forskolin response, means ± S.E.M. of at least three experiments in triplicate
[16] = purified human serum in the presence of DPP-4 inhibitor P32/98; conditions: 37 °C, up to 11 h
[17] = 12.5% human serum in 100 mM sodium phosphate buffer (PH 7.4), 150 mM NaCl, 0.2% Tween-20; conditions: 37 °C, up to 4 h
[18] = 12.5% echidna serum in 100 mM sodium phosphate buffer (PH 7.4), 150 mM NaCl, 0.2% Tween-20; conditions: 37 °C, up to 4 h
[19] = 12.5% platypus serum in 100 mM sodium phosphate buffer (PH 7.4), 150 mM NaCl, 0.2% Tween-20; conditions: 37 °C, up to 4 h

Molecule: HFDGVYTDYFSRYLEEKATNEFIDWLLKGQE [eGLP-1]
Degradation by purified human DPP-4 (in words) [4]: not degraded
Stability in albumin-depleted human serum (in words) [5]: remained stable
remaining at 11 h, 7 μM [5]: 99.3 ± 1.8%
Effect of DPP-4 inhibitor P32/98 on degradation in platypus serum (in words) [6]: did not alter the cleavage pattern
remaining at 11 h, 7 μM [6]: 48.3 ± 3.5%
Uncleaved peptide remaining after 11 hours in echidna serum [7]: less than 50%
remaining at 11 h, 7 μM [7]: 42.4 ± 4.3%
IC50 [8]: 25.1 nM
EC50 [9]: 126 nM
EC50 [10]: 10 µM
EC50 [11]: 794 nM

Molecule: CC[C@H](C)[C@H](NC(=O)[C@H](Cc1ccccc1)NC(=O)[C@H](CCC(=O)O)NC(=O)[C@H](CCCCN)NC(=O)[C@H](C)NC(=O)[C@H](C)NC(=O)[C@H](CCC(N)=O)NC(=O)CNC(=O)[C@H](CCC(=O)O)NC(=O)[C@H](CC(C)C)NC(=O)[C@H](Cc1ccc(O)cc1)NC(=O)[C@H](CO)NC(=O)[C@H](CO)NC(=O)[C@@H](NC(=O)[C@H](CC(=O)O)NC(=O)[C@H](CO)NC(=O)[C@@H](NC(=O)[C@H](Cc1ccccc1)NC(=O)[C@@H](NC(=O)CNC(=O)[C@H](CCC(=O)O)NC(=O)[C@H](C)NC(=O)[C@@H](N)Cc1c[nH]cn1)[C@@H](C)O)[C@@H](C)O)C(C)C)C(=O)N[C@@H](C)C(=O)N[C@@H](Cc1c[nH]c2ccccc12)C(=O)N[C@@H](CC(C)C)C(=O)N[C@H](C(=O)N[C@@H](CCCCN)C(=O)NCC(=O)N[C@@H](CCCNC(=N)N)C(=O)NCC(=O)O)C(C)C [hGLP-1]
half-life at 30 μM [12]: ≤ 60 min
pIC50 pGLP-1R CHO [13]: 8.9 ± 0.1
pEC50 pGLP-1R CHO Ca2+ mobilization [14]: 8.3 ± 0.1^&
pEC50 INS-1 (832/13) cAMP accumulation [15]: 9.6 ± 0.3

Molecule: HSEGTFTNDVTRLLEEKATSEFIAWLLKGLE [pGLP-1]
Degradation by purified human DPP-4 (in words) [4]: not degraded
Stability in albumin-depleted human serum (in words) [5]: remained stable
remaining at 11 h, 7 μM [5]: 96.4 ± 2%
Effect of DPP-4 inhibitor P32/98 on degradation in platypus serum (in words) [6]: did not alter the cleavage pattern
remaining at 11 h, 7 μM [6]: 55.1 ± 3.5%
Uncleaved peptide remaining after 11 hours in echidna serum [7]: less than 50%
remaining at 11 h, 7 μM [7]: 49.4 ± 2.9%
IC50 [8]: 12.6 nM
EC50 [9]: 2 nM
EC50 [10]: 0.316 µM
EC50 [11]: 12.6 nM

Molecule: H-Ala-Pro-p-nitroanilide
cleaved bond [17]: Pro-p-nitroanilide
cleaved bond [18]: Pro-p-nitroanilide
cleaved bond [19]: Pro-p-nitroanilide

Further lines, with some results ahead:

not cleaved [2]: not degraded by human DPP-4
not cleaved [3]: 99.3 ± 1.8% after 11 h
Molecule: HFDGVYTDYFSRYLEEKATNEFIDWLLKGQE
cleaved bond [1]: T19-N20; also recorded: R12-Y13; also recorded: Y13-L14

fragment found [1]: hGLP-1 (1-22) HAEGTFTSDVSSYLEGQAAKEF
not cleaved [16]: remained intact (0% degraded)
Molecule: HAEGTFTSDVSSYLEGQAAKEFIAWLVKGRG

not cleaved [2]: not degraded by human DPP-4
not cleaved [3]: 96.4 ± 2.0% after 11 h
Molecule: HSEGTFTNDVTRLLEEKATSEFIAWLLKGLE
cleaved bond [1]: R12-L13; also recorded: L14-E15; also recorded: E16-K17; also recorded: T19-S20; also recorded: L26-L27; also recorded: K28-G29
